How the values were obtained:
[1] = tested on: VEGF-induced cord formation; assay: VEGF-driven vascular cord formation, stem cell co-culture model of angiogenesis (StemKit), neo-angiogenic setting; assay type: cell-based
Procedure: (§1) To study the vascular disrupting properties of one of the compounds, example 3, an evaluation of its inhibitory and disruptive effects on VEGF-driven vascular cord formation in an in vitro stem cell co-culture model of angiogenesis (StemKit, Essen Bioscience) was carried out.

established vessels = assay: Stem cell co-culture model of angiogenesis (StemKit), established vessels; assay type: cell-based; settings: doses from 3 nM up to 100 nM, example 3 and combretastatin A4 had equal potency
Procedure: as §1

[2] = tested on: colchicine site on tubulin (Porcine brain tubulin); assay: Colchicine displacement assay, fluorometric detection; assay type: binding; settings: 2 μM porcine brain tubulin, 2 μM colchicine, compound at 20 μM, 2 h; control = colchicine bound to tubulin
Procedure: To study whether the compounds bind to the colchicine site on tubulin, a colchicine displacement assay using fluorometric detection was performed as previously described (Bhattacharyya B. et al.; Proc Natl Acad Sci U S A 1974, 71:2627-31; Risinger A L. et al.; J Pharmacol Exp Ther 2011: 336:652-60). Porcine brain tubulin at 2 μM (Cytoskeleton) in a buffer consisting of 80 mM PIPES, 2 mM MgCl2, 0.5 mM EGTA at pH 7.0 with addition of 1 mM GTP, was incubated alone, with 2 μM colchicine or with 2 μM colchicine in the presence of test compounds or reference compound combretastatin A4 at 20 μM for 2 h in a black half-area 96-well plate (Corning Inc, Corning, N.Y., USA). Thereafter, the fluorescence was measured using a FLUOStar Optima (BMG Labtech) at an excitation of 380 nm and emission of 440 nm. The results are presented as percent of control i.e. colchicine bound to tubulin.

[3] = tested on: CCRF-CEM cancer cells - leukemia; assay: Fluorometric Microculture Cytotoxicity Assay (FMCA), CCRF-CEM; assay type: cell-based; settings: Homo sapiens, 72 h, CCRF-CEM acute lymphoblastic leukemia cell line
Text: (§2) The Fluorometric Microculture Cytotoxicity Assay, FMCA (Larsson, R., et al.; Anticancer Res, 1989, 9, 1111-1119), is a three day non-clonogenic microplate-based cell viability assay used for measurement of the cytotoxic and/or cytostatic effect of compounds in vitro (Lindhagen, E. et al.; Nat. Protoc., 2008, 3, 1364-1369). FMCA represents a valuable method to measure cytotoxicity in a number of cell types, both cell lines and primary cells from patients (Larsson, R., et al.; Int. J. Cancer, 1992, 50, 177-185; Fridborg, H., et al.; Eur. J. Cancer, 1999. 35, 424-432; Dhar, S., et al.; Br. J. Cancer, 1996, 74, 888-896).
(§3) FMCA is based on the principle that fluorescein diacetate (FDA) is converted to the fluorescent probe fluorescein by esterases […]. For experiments, 96-well microplates are prepared with compounds and stored at −20° C. or −70° C. until use. Cells are then seeded into the drug-prepared plates and placed in an incubator for 72 h. On the last day of incubation, the plates are washed and a buffer containing FDA is added and incubated with the cells for 45 minutes. Finally the fluorescence per well is measured in a fluorometer and a Survival Index % (SI) for each compound-treated well is calculated with the equation: Compound-treated cells minus blank divided by control cells minus blank. A high SI-value indicates a large percentage of living cells and vice versa.
For experiments with compounds of the invention, 96-well plates were prepared as follows: Compounds were dissolved in DMSO to 10 mM and stored at −20° C. The test compounds were thawed, protected from light, mixed, and 3 μl stock solution was added to test tubes containing 297 μl culture medium RPMI-1640, to give the concentration 100 μM. Then, compounds were serially diluted to concentrations ten times higher than the desired test concentrations. Finally, 20 μl of each compound solution was added in duplicates to wells in two V-bottomed 96-well plates. The plates were stored at −20° C. until use.
On the day of cell seeding, 180 μl of cell suspension was added to each well in the two assay plates. The final concentrations of compounds tested were 10 μM, 1 μM, 0.1 μM and 0.01 μM. The experiment was performed twice.
In subsequent experiments, compounds were tested, along with a number of approved cancer drugs (dasatinib and pazopanib) as described above. The acute lymphoblastic leukemia cell line CCRF-CEM was used throughout. In the assay plates, medium was added to eight empty wells (blank wells) and wells filled with cell suspension served as control wells. SI-values were then calculated for each compound-treated well as described above. All experiments were conducted twice and a new batch of plates was prepared for each experiment.
(§4) To obtain EC50-values, plates were prepared with compounds serially diluted in culture media to suitable concentration ranges for each compound. Thereafter cells were added at a density of 10 000 cells per well and FMCA was performed after 72 h. Data analysis was performed using GraphPadPrism software, where SI values for each concentration were plotted on a log scale and processed with non-linear regression and a standard sigmoidal dose-response model.

bovine tubulin protein = assay: Tubulin polymerization assay kit (Cytoskeleton Inc), fluorescence; assay type: biochemical; settings: cell-free, example compounds at 1, 3 and 10 μM, controls at 3 μM, 60 mins, read-out: Inhibition of tubulin polymerization IC50
Procedure: Example compounds were further tested in a tubulin polymerization assay kit from Cytoskeleton Inc (Denver, Colo., USA). Polymerization is followed by fluorescence enhancement due to the incorporation of a fluorescent reporter into microtubules as polymerization occurs. Vincristine and paclitaxel at 3 μM were used as positive controls for tubulin polymerization inhibition and stabilisation, respectively. All compounds were dissolved in DMSO, which was used as solvent control. For experiments, example compounds (1, 3, and 10 μM) and control compounds (3 μM) were incubated with bovine tubulin protein in a cell-free environment and the fluorescence was then measured in a fluorometer (Fluostar Optima, BMG Labtech, Offenburg, Germany) at 360/450 nm every minute for a total of 60 mins.

A2780 = assay: FMCA cytotoxicity, ovarian cancer cell line A2780; assay type: cell-based; settings: Homo sapiens
Text: as §2, §3, §4
(§5) The compounds of the invention were also tested on further cancer cell lines related to ovarian cancer (A2780; see e.g. Hamilton, T. et al.; Semin. Oncol., 1984, 11, 285-298) and multidrug-resistant ovarian cancer (A2780/Adr). The known microtubule interfering agents vincristine and paclitaxel were included as references in the resistant and non-resistant ovarian cancer cell lines.

A2780/Adr = assay: FMCA cytotoxicity, multidrug-resistant ovarian cancer cell line A2780/Adr; assay type: cell-based
Text: as §2, §3, §4, §5

SMILES | threshold concentration of inhibitory effect on VEGF-induced cord formation ([1]; tested from 0.78 nM and upwards, dose dependent inhibitory effect) | disruption of established blood vessels (established vessels) | Colchicine-tubulin binding Percent of control [2] | EC50 [3] | IC50 (bovine tubulin protein) | EC50 (A2780) | EC50 (A2780/Adr) | inhibition of VEGF-induced cord formation ([1]; from the lowest tested dose 4.6 nM up to 10 μM)
COc1ccc(/C=C\c2cc(OC)c(OC)c(OC)c2)cc1O [Combretastatin A4, combretastatin A4, reference compound] | 1.6 nM | concentration dependent disruption of blood vessels | 66% of control |  |  |  |  | 
CCOc1ccc2[nH]cc(CCNc3nccc(Nc4cccc5c4cnn5C)n3)c2c1 [Example 1] |  |  | 68% of control | 0.0019 µM | 1 to 3 µM | 0.0004 µM | 0.0036 µM | 
COc1ccc2[nH]cc(CCNc3nccc(Nc4ccc5cn(C)nc5c4)n3)c2c1 [Example 2, N^2-[2-(5-methoxy-1H-indol-3-yl)ethyl]-N^4-(2-methyl-2H-indazol-6-yl)pyrimidine-2,4-diamine] |  |  | 77% of control | 0.0051 µM |  | 0.0093 µM | 0.034 µM | 
CCOc1ccc2[nH]cc(CCNc3nccc(Nc4ccc5cn(C)nc5c4)n3)c2c1 [Example 3, N^2-[2-(5-ethoxy-1H-indol-3-yl)ethyl]-N^4-(2-methyl-2H-indazol-6-yl)pyrimidine-2,4-diamine] |  | concentration dependent disruption of blood vessels | 68% of control | 0.0053 µM | ~3 µM | 0.00072 µM | 0.016 µM | 100%
COc1ccc2[nH]cc(CCNc3nccc(Nc4ccc5c(C)n(C)nc5c4)n3)c2c1 [Example 4, N^4-(2,3-dimethyl-2H-indazol-6-yl)-N^2-[2-(5-methoxy-1H-indo1-3-yl)ethyl]pyrimidine-2,4-diamine] |  |  | 94% of control | 0.011 µM | ~3 µM | 0.034 µM | 0.37 µM | 
CCOc1ccc2[nH]cc(CCNc3nccc(Nc4ccc5c(C)n(C)nc5c4)n3)c2c1 [Example 5, N^4-(2,3-dimethyl-2H-indazol-6-yl)-N^2-[2-(5-ethoxy-1H-indol-3-yl)ethyl]pyrimidine-2,4-diamine] |  |  |  | 0.0055 µM |  | 0.0085 µM | 0.15 µM | 
CCOc1ccc2[nH]cc(CCNc3nc(C)cc(Nc4ccc5c(C)n(C)nc5c4)n3)c2c1 [Example 6, N^4-(2,3-dimethylindazol-6-yl)-N^2-[2-(5-ethoxy-1H-indol-3-yl)ethyl]-6-methyl-pyrimidine-2,4-diamine] |  |  | 99% of control | 0.034 µM | 3 to 10 µM | 0.047 µM | 0.39 µM | 
COc1ccc2[nH]cc(CCNc3nccc(Nc4cccc5c4cnn5C)n3)c2c1 [Example 7, N^2-[2-(5-methoxy-1H-indol-3-yl)ethyl]-N^4-(1-methylindazol-4-yl)pyrimidine-2,4-diamine] |  |  | 64% of control | 0.0051 µM |  | 0.0029 µM | 0.013 µM | 
CC(=O)O[C@H]1C(=O)[C@@]2(C)[C@H]([C@H](OC(=O)c3ccccc3)[C@]3(O)C[C@H](OC(=O)[C@H](O)[C@@H](NC(=O)c4ccccc4)c4ccccc4)C(C)=C1C3(C)C)[C@]1(OC(C)=O)CO[C@@H]1C[C@@H]2O [Paclitaxel, paclitaxel, reference compound] |  |  |  |  |  | 0.00026 µM | 0.81 µM | 
Cc1nc(Nc2ncc(C(=O)Nc3c(C)cccc3Cl)s2)cc(N2CCN(CCO)CC2)n1 [Ref. 1, dasatinib, reference compound] |  |  |  | 9.7 µM |  |  |  | 
Cc1ccc(Nc2nccc(N(C)c3ccc4c(C)n(C)nc4c3)n2)cc1S(N)(=O)=O [Ref. 2, pazopanib, reference compound] |  |  |  | 25.9 µM |  |  |  | 
CC[C@]1(O)C[C@H]2CN(CCc3c([nH]c4ccccc34)[C@@](C(=O)OC)(c3cc4c(cc3OC)N(C=O)[C@H]3[C@@](O)(C(=O)OC)[C@H](OC(C)=O)[C@]5(CC)C=CCN6CC[C@]43[C@@H]65)C2)C1 [Vincristine, vincristine, reference compound] |  |  |  |  | < 3 µM | 0.00022 µM | 0.21 µM | 
